“Also recorded” adds a separate entry of the source.
Tests used:
Format in all cases: cell-based, human
[1] = system: SU-DHL-10 cells; test: Cell viability assay (CellTiter-Glo) in SU-DHL-10 cells; conditions: for IC50: Homo sapiens, SU-DHL10, 120 h, SU-DHL-10 cells (EZH2-mutant DLBCL), in the presence of 1 μM EPZ-6438, 5 days; for cell viability of the combination versus the compound alone (FIG. 2A, 2C): SU-DHL-10, combination with any of CC-122, CC-220, or CC-92480 (so in the source); for cell viability, response of the cells to the single agent: SU-DHL-10, single agent
Protocol: (§1) Experiments were performed in cultured human cells to assess the efficacy of combined EZH2 inhibitor and immunomodulatory drug (e.g., an IMiD) treatment using an EZH2-mutant DLBCL cell line, SU-DHL-10, and an EZH2-wild type line, OCI-LY7. Cells were purchased from Nanjing Cobioer Biotechnology. SU-DHL-10 and OCI-LY7 cells were cultured at 37° C. with 5% CO2 in RPMI 1640 Medium supplemented with 10% fetal bovine serum. Cells were authenticated using the short tandem repeat (STR) assays. Mycoplasma test results were negative.
(§2) The cultured cells were seeded at a density of 5000 cells per well in 96-well assay plates and treated with test compounds at 10 μM followed by a 11-point 3-fold serial dilution or an 8-point 10-fold serial dilution. Cell viability was determined after 5 days, using the CellTiter-Glo assay kit (Promega) according to the manufacturer's instructions. The dose-response curves were determined and IC50 values were calculated using the GraphPad Prism software following a nonlinear regression (least squares fit) method. Each data point in the figure represents the mean values of at least two technical replicates ± standard deviation.
(§3) Cells were treated with EZH2 inhibitors in the presence of IMiDs at concentrations sufficient to induce degradation of IKZF1 and IKZF3 but not enough to kill cells. CC-122 and CC-220 were tested at a concentration of 1 μM; CC-92480 and CFT7455 were tested at a concentration of 1 nM; and CC-99282 was tested at a concentration of 10 nM.

[2] = system: OCI-LY7 cells; test: Cell viability assay (CellTiter-Glo) in OCI-LY7 cells; conditions: for IC50: Homo sapiens, 120 h, OCI-LY7 cells (EZH2-wild type), in the presence of 1 μM EPZ-6438, 5 days; for cell viability of the combination versus the compound alone (FIG. 2B, 2D): OCI-LY7, combination with any of CC-122, CC-220, or CC-92480 (so in the source); for cell viability, response of the cells to the single agent: OCI-LY7, single agent, 5 days
Protocol: as §1, §2, §3

[3] = system: SU-DHL-10 cells; test: Cell viability assay (CellTiter-Glo) in SU-DHL-10 cells
[4] = SU-DHL-10, in the presence of 1 μM CPI-1205, 5 days
[5] = SU-DHL-10, in the presence of 1 μM EPZ-6438, 5 days
[6] = SU-DHL-10, in the presence of 1 μM GSK126, 5 days
[7] = SU-DHL-10, in the presence of C24 (1 μM with CC-122, 2 μM with CC-220), 5 days
[8] = OCI-LY7, in the presence of 1 μM C24, 5 days
[9] = OCI-LY7, in the presence of 1 μM CPI-1205, 5 days
[10] = OCI-LY7, in the presence of 1 μM EPZ-6438, 5 days
[11] = OCI-LY7, in the presence of 1 μM GSK126, 5 days
[12] = SU-DHL-10, in the presence of 1 nM CFT7455, 5 days
[13] = SU-DHL-10, in the presence of 10 nM CC-99282, 5 days
[14] = OCI-LY7, in the presence of 1 nM CFT7455, 5 days
[15] = OCI-LY7, in the presence of 10 nM CC-99282, 5 days
[16] = SU-DHL-10, in the presence of 1 nM CC-92480, 5 days
[17] = SU-DHL-10, in the presence of 1 μM CC-122, 5 days
[18] = SU-DHL-10, in the presence of 1 μM CC-220, 5 days
[19] = OCI-LY7, in the presence of 1 nM CC-92480, 5 days
[20] = OCI-LY7, in the presence of 1 μM CC-122, 5 days
[21] = OCI-LY7, in the presence of 1 μM CC-220, 5 days

## Cc1nc2cccc(N)c2c(=O)n1C1CCC(=O)NC1=O (stereo not shown) [CC-122, avadomide]
[1]
  IC50: 89 nM
  cell viability of the combination versus the compound alone (FIG. 2A, 2C): lowered cell viability more than treatment with CC-122 alone
[1]; [4]
  cell viability (sensitivity of the cells to the compound in combination): highly sensitive
[1]; [5]
  cell viability (sensitivity of the cells to the compound in combination): highly sensitive
[1]; [6]
  cell viability (sensitivity of the cells to the compound in combination): highly sensitive
[1]; [7]
  cell viability (sensitivity of the cells to the compound in combination): highly sensitive
[1]; 5 days
  cell viability, response of the cells to the single agent: refractory
[2]
  IC50: 380 nM
  cell viability of the combination versus the compound alone (FIG. 2B, 2D): lowered cell viability more than treatment with CC-122 alone
  cell viability, response of the cells to the single agent: modestly responsive
[2]; [8]
  cell viability (sensitivity of the cells to the compound in combination): highly sensitive
[2]; [9]
  cell viability (sensitivity of the cells to the compound in combination): highly sensitive
[2]; [10]
  cell viability (sensitivity of the cells to the compound in combination): highly sensitive
[2]; [11]
  cell viability (sensitivity of the cells to the compound in combination): highly sensitive

## O=C1CC[C@H](N2Cc3c(OCc4ccc(CN5CCOCC5)cc4)cccc3C2=O)C(=O)N1 [CC-220, iberdomide]
[1]
  IC50: 9.5 nM
  cell viability of the combination versus the compound alone (FIG. 2A, 2C): lowered cell viability more than treatment with CC-220 alone
[1]; [4]
  cell viability (sensitivity of the cells to the compound in combination): highly sensitive
[1]; [5]
  cell viability (sensitivity of the cells to the compound in combination): highly sensitive
[1]; [6]
  cell viability (sensitivity of the cells to the compound in combination): highly sensitive
[1]; [7]
  cell viability (sensitivity of the cells to the compound in combination): highly sensitive
[1]; 5 days
  cell viability, response of the cells to the single agent: refractory
[2]
  IC50: 30 nM
  cell viability of the combination versus the compound alone (FIG. 2B, 2D): lowered cell viability more than treatment with CC-220 alone
  cell viability, response of the cells to the single agent: modestly responsive
[2]; [8]
  cell viability (sensitivity of the cells to the compound in combination): highly sensitive
[2]; [9]
  cell viability (sensitivity of the cells to the compound in combination): highly sensitive
[2]; [10]
  cell viability (sensitivity of the cells to the compound in combination): highly sensitive
[2]; [11]
  cell viability (sensitivity of the cells to the compound in combination): highly sensitive

## O=C1CC[C@H](N2C(=O)c3cccc(NCc4ccc(CN5CC(N6CCOCC6)C5)cc4F)c3C2=O)C(=O)N1 [CC-99282, (S)-2-(2,6-dioxopiperidin-3-yl)-4-((2-fluoro-4-((3-morpholinoazetidin-1-yl)methyl)benzyl)amino)isoindoline-1,3-dione]
[1]; 5 days
  cell viability, response of the cells to the single agent: moderately responsive
[3]; SU-DHL-10, in the presence of 100 nM CPI-0209
  cell viability (sensitivity of the cells to the compound in combination): lowered cell viability more than treatment with CC-99282 alone
[3]; SU-DHL-10, in the presence of 100 nM SHR2554
  cell viability (sensitivity of the cells to the compound in combination): lowered cell viability more than treatment with CC-99282 alone
[2]; OCI-LY7, in the presence of 100 nM CPI-0209
  cell viability (sensitivity of the cells to the compound in combination): lowered cell viability more than treatment with CC-99282 alone
[2]; OCI-LY7, in the presence of 100 nM SHR2554
  cell viability (sensitivity of the cells to the compound in combination): lowered cell viability more than treatment with CC-99282 alone
[2]
  cell viability, response of the cells to the single agent: moderately responsive

## COC1CN(C2CCC([C@@]3(C)Oc4c(Cl)cc(C(=O)NCc5c(SC)cc(C)[nH]c5=O)c(C)c4O3)CC2)C1 (stereo partly drawn) [CPI-0209, (2R)-7-chloro-2-(4-(3-methoxyazetidin-1-yl)cyclohexyl)-2,4-dimethyl-N-((6-methyl-4-(methylthio)-2-oxo-1,2-dihydropyridin-3-yl)methyl)benzo[d][1,3]dioxole-5-carboxamide]
[1]; [12]
  cell viability (sensitivity of the cells to the compound in combination): highly sensitive; also recorded: lowered cell viability more than treatment with CPI-0209 alone
[1]; [13]
  cell viability (sensitivity of the cells to the compound in combination): highly sensitive; also recorded: lowered cell viability more than treatment with CPI-0209 alone
[1]; 5 days
  cell viability, response of the cells to the single agent: moderately responsive
[2]; [14]
  cell viability (sensitivity of the cells to the compound in combination): highly sensitive; also recorded: lowered cell viability more than treatment with CPI-0209 alone
[2]; [15]
  cell viability (sensitivity of the cells to the compound in combination): highly sensitive; also recorded: lowered cell viability more than treatment with CPI-0209 alone
[2]
  cell viability, response of the cells to the single agent: modestly responsive

## COc1cc(C)[nH]c(=O)c1CNC(=O)c1c(C)n([C@H](C)C2CCN(CC(F)(F)F)CC2)c2ccccc12 [CPI-1205, lirametostat]
[1]; [16]
  cell viability (sensitivity of the cells to the compound in combination): highly sensitive; also recorded: lowered cell viability more than treatment with CPI-1205 alone
[1]; [17]
  cell viability (sensitivity of the cells to the compound in combination): highly sensitive; also recorded: lowered cell viability more than treatment with CPI-1205 alone
[1]; [18]
  cell viability (sensitivity of the cells to the compound in combination): highly sensitive; also recorded: lowered cell viability more than treatment with CPI-1205 alone
[2]; [19]
  cell viability (sensitivity of the cells to the compound in combination): highly sensitive; also recorded: lowered cell viability more than treatment with CPI-1205 alone
[2]; [20]
  cell viability (sensitivity of the cells to the compound in combination): highly sensitive; also recorded: lowered cell viability more than treatment with CPI-1205 alone
[2]; [21]
  cell viability (sensitivity of the cells to the compound in combination): highly sensitive; also recorded: lowered cell viability more than treatment with CPI-1205 alone

## CC[C@H](C)n1cc(C)c2c(C(=O)NCc3c(C)cc(C)[nH]c3=O)cc(-c3ccc(N4CCNCC4)nc3)cc21 [GSK126, (S)-1-(sec-butyl)-N-((4,6-dimethyl-2-oxo-1,2-dihydropyridin-3-yl)methyl)-3-methyl-6-(6-(piperazin-1-yl)pyridin-3-yl)-1H-indole-4-carboxamide]
[1]; [16]
  cell viability (sensitivity of the cells to the compound in combination): highly sensitive; also recorded: lowered cell viability more than treatment with GSK126 alone
[1]; [17]
  cell viability (sensitivity of the cells to the compound in combination): highly sensitive; also recorded: lowered cell viability more than treatment with GSK126 alone
[1]; [18]
  cell viability (sensitivity of the cells to the compound in combination): highly sensitive; also recorded: lowered cell viability more than treatment with GSK126 alone
[2]; [19]
  cell viability (sensitivity of the cells to the compound in combination): highly sensitive; also recorded: lowered cell viability more than treatment with GSK126 alone
[2]; [20]
  cell viability (sensitivity of the cells to the compound in combination): highly sensitive; also recorded: lowered cell viability more than treatment with GSK126 alone
[2]; [21]
  cell viability (sensitivity of the cells to the compound in combination): highly sensitive; also recorded: lowered cell viability more than treatment with GSK126 alone

## CCc1c(N(CC)C2CCOCC2)cc2oc(CN3CCCCC3)cc2c1C(=O)NCc1c(C)cc(C)[nH]c1=O [SHR2554, N-((4,6-dimethyl-2-oxo-1,2-dihydropyridin-3-yl)methyl)-5-ethyl-6-(ethyl(tetrahydro-2H-pyran-4-yl)amino)-2-(piperidin-1-ylmethyl)benzofuran-4-carboxamide]
[1]; [12]
  cell viability (sensitivity of the cells to the compound in combination): highly sensitive; also recorded: lowered cell viability more than treatment with SHR2554 alone
[1]; [13]
  cell viability (sensitivity of the cells to the compound in combination): highly sensitive; also recorded: lowered cell viability more than treatment with SHR2554 alone
[1]; 5 days
  cell viability, response of the cells to the single agent: modestly responsive
[2]; [14]
  cell viability (sensitivity of the cells to the compound in combination): highly sensitive; also recorded: lowered cell viability more than treatment with SHR2554 alone
[2]; [15]
  cell viability (sensitivity of the cells to the compound in combination): highly sensitive; also recorded: lowered cell viability more than treatment with SHR2554 alone
[2]
  cell viability, response of the cells to the single agent: refractory

From patent US20240335452A1, “COMPOSITIONS AND METHODS OF COMBINATION THERAPY FOR TARGETING LYMPHOMA” (Cullgen (Shanghai), Inc., priority 2021, published 2024)
